Data: ChEMBL document CHEMBL1201862, “PubChem BioAssay data set” (2004)
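Each compound was tested at five concentrations against cells in 96-well plates for 48 hours. GI50: concentration for 50% inhibition of growth.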 Calls of active or inactive are those of the source. Rule as the data show it: active = GI50 up to about 1.1 µM and inactive = higher.

Assays:
Assay in all cases: NCI anticancer screen, dose series, 48 h
A498 = test system: A498
ACHN = test system: ACHN
CAKI-1 = test system: CAKI-1
CCRF-CEM = test system: CCRF-CEM
COLO 205 = test system: COLO 205
DLD-1 = test system: DLD-1
DMS-114 = test system: DMS-114
DMS-273 = test system: DMS-273
HCT-116 = test system: HCT-116
HCT-15 = test system: HCT-15
HL-60 = test system: HL-60
HOP-18 = test system: HOP-18
IGROV-1 = test system: IGROV-1
K562 = test system: K562
KM-20L2 = test system: KM-20L2
LOX IMVI = test system: LOX IMVI
LXFL 529 = test system: LXFL 529
M14 = test system: M14
M19-MEL = test system: M19-MEL
Malme-3M = test system: Malme-3M
NCI-H226 = test system: NCI-H226
NCI-H522 = test system: NCI-H522
OVCAR-8 = test system: OVCAR-8
RPMI-8226 = test system: RPMI-8226
SK-MEL-5 = test system: SK-MEL-5
SK-OV-3 = test system: SK-OV-3
SNB-19 = test system: SNB-19
SNB-78 = test system: SNB-78
SR = test system: SR
TK-10 = test system: TK-10
UACC-62 = test system: UACC-62
UO-31 = test system: UO-31
A549 = test system: A549
EKVX = test system: EKVX
HCC 2998 = test system: HCC 2998
HOP-62 = test system: HOP-62
HOP-92 = test system: HOP-92
HT-29 = test system: HT-29
KM12 = test system: KM12
MCF7 = test system: MCF7
MOLT-4 = test system: MOLT-4
NCI-H23 = test system: NCI-H23
NCI-H460 = test system: NCI-H460
NCI/ADR-RES = test system: NCI/ADR-RES
OVCAR-3 = test system: OVCAR-3
OVCAR-4 = test system: OVCAR-4
OVCAR-5 = test system: OVCAR-5
RXF 393 = test system: RXF 393
SF-268 = test system: SF-268
SF-295 = test system: SF-295
SF-539 = test system: SF-539
SK-MEL-28 = test system: SK-MEL-28
SK-MEL-2 = test system: SK-MEL-2
SN12C = test system: SN12C
SNB-75 = test system: SNB-75
SW-620 = test system: SW-620
U-251 = test system: U-251
UACC-257 = test system: UACC-257

Measured: GI50

NC(CCC(=O)NC(CSC(=O)N(O)c1ccc(Br)cc1)C(=O)NCC(=O)O)C(=O)O (centres undefined)
77.6 µM: HCT-15
inactive: A498 > 100 µM | ACHN 25.1 µM | CAKI-1 70.3 µM | CCRF-CEM > 100 µM | COLO 205 > 100 µM | DLD-1 86.5 µM | DMS-114 > 100 µM | DMS-273 > 100 µM | HCT-116 88.5 µM | HL-60 > 100 µM | HOP-18 38.2 µM | IGROV-1 > 100 µM | K562 76.2 µM | KM-20L2 35.2 µM | LOX IMVI 61.5 µM | LXFL 529 46.9 µM | M14 30 µM | M19-MEL > 100 µM | Malme-3M > 100 µM | NCI-H226 > 100 µM | NCI-H522 > 100 µM | OVCAR-8 > 100 µM | RPMI-8226 66.4 µM | SK-MEL-5 > 100 µM | SK-OV-3 29.2 µM | SNB-19 > 100 µM | SNB-78 > 100 µM | SR 81.7 µM | TK-10 > 100 µM | UACC-62 > 100 µM | UO-31 90.4 µM

CN1CCC23c4ccccc4NC1C21CCN(C)C3Nc2ccccc21
> 375 µM: HCT-15
inactive: A498 > 218 µM | A549 > 375 µM | CAKI-1 75.5 µM | CCRF-CEM 137 µM | COLO 205 > 338 µM | DLD-1 > 375 µM | DMS-114 > 375 µM | DMS-273 > 375 µM | EKVX > 294 µM | HCC 2998 > 375 µM | HCT-116 356 µM | HL-60 59.7 µM | HOP-18 343 µM | HOP-62 > 375 µM | HOP-92 94.6 µM | HT-29 > 375 µM | IGROV-1 > 375 µM | K562 130 µM | KM-20L2 > 239 µM | KM12 268 µM | LOX IMVI > 375 µM | M19-MEL > 375 µM | MCF7 > 375 µM | MOLT-4 151 µM | Malme-3M 249 µM | NCI-H226 206 µM | NCI-H23 > 375 µM | NCI-H460 > 375 µM | NCI-H522 > 375 µM | NCI/ADR-RES > 375 µM | OVCAR-3 > 375 µM | OVCAR-4 > 375 µM | OVCAR-5 > 375 µM | OVCAR-8 59.4 µM | RPMI-8226 157 µM | RXF 393 152 µM | SF-268 102 µM | SF-295 > 375 µM | SF-539 > 355 µM | SK-MEL-28 > 375 µM | SK-MEL-2 > 375 µM | SK-MEL-5 > 174 µM | SK-OV-3 > 375 µM | SN12C > 375 µM | SNB-19 > 375 µM | SNB-75 > 303 µM | SNB-78 151 µM | SW-620 > 375 µM | U-251 > 375 µM | UACC-257 93.3 µM | UACC-62 > 375 µM | UO-31 > 301 µM

O=C(NC(=O)c1cn(CCN2CCNCC2)c(=O)[nH]c1=O)OCc1ccccc1
inactive: A549 > 100 µM | ACHN > 100 µM | CAKI-1 > 100 µM | CCRF-CEM > 100 µM | COLO 205 > 100 µM | DLD-1 > 100 µM | DMS-114 63.5 µM | EKVX > 100 µM | HCT-116 > 100 µM | HL-60 > 100 µM | HOP-62 > 100 µM | HOP-92 > 100 µM | HT-29 > 100 µM | IGROV-1 > 10 µM | K562 > 100 µM | KM12 > 100 µM | LOX IMVI > 100 µM | LXFL 529 > 100 µM | M14 > 100 µM | M19-MEL > 100 µM | MOLT-4 > 100 µM | Malme-3M > 100 µM | NCI-H226 > 100 µM | NCI-H23 > 100 µM | NCI-H460 > 100 µM | NCI-H522 > 100 µM | OVCAR-3 > 100 µM | OVCAR-4 > 100 µM | OVCAR-5 > 100 µM | OVCAR-8 > 100 µM | RPMI-8226 > 100 µM | SF-268 > 100 µM | SF-295 > 100 µM | SF-539 > 100 µM | SK-MEL-5 > 100 µM | SK-OV-3 > 100 µM | SN12C > 100 µM | SNB-75 68.9 µM | SNB-78 > 100 µM | SR > 100 µM | SW-620 > 100 µM | U-251 > 100 µM | UACC-62 > 100 µM
> 100 µM: HCT-15
